Experimental data taken from patent US9328369B2, “Process for production of useful substance, and surfactant for use in the process” (priority 2009, dated 2016).

Tests used:
[1] = tested on: Escherichia coli (α); assay: Screening of secretion efficiency, alkaline phosphatase expressing strain; format: cell-based; settings: surfactant 1 wt %; 37° C., 1 hour; ELISA, anti-His-tag antibody
Description: An alkaline phosphatase (phoA) gene of an Escherichia coli strain W3110 was amplified by the PCR method using primers 1 and 2 (Table 4). After being treated with restriction enzymes NdeI and BamHI, a PCR fragment was bound with an NdeI restriction enzyme site and with a BamHI restriction enzyme site of a pET-22b plasmid (product of Novagen). Then, the plasmid was transformed into an AG1 (DE3) Escherichia coli strain formed by transforming an Escherichia coli strain AG1 (product of TOYOBO Co., LTD.) with use of a λDE3 Lysogenization Kit (product of Novagen). In this manner, an alkaline phosphatase expressing strain (a) was formed.
A pdxA gene of an Escherichia coli strain W3110 was amplified by the PCR method using primers 5 and 6 (Table 4). After being treated with restriction enzymes NdeI and BamHI, a PCR fragment was bound to an NdeI restriction enzyme site and a BamHI restriction enzyme site of a pET-22b plasmid (product of Novagen). Then, the plasmid was transformed into an AG1 (DE3) Escherichia coli strain to form a PdxA expressing strain (γ).
In this manner, culture solutions were prepared.
(2) The strains were collected using a centrifuge (4,000 G, 4° C., 15 minutes). Each of the collected Escherichia coli strains was resuspended in 1 mL of a TB culture solution (product of Difco) and chloramphenicol (30 mg/L) and IPTG (100 μM) were added thereto. Shake culture at 37° C. for 3 hours induced expression of phoA, torA, and pdxA.
(3) Subsequently, harvesting using a centrifuge was carried out again (4,000 G, 4° C., 15 minutes). Each of the collected Escherichia coli strains was resuspended in 2.5 mL of a Tris-NaCl buffer solution (50 mM Tris (pH 7.5), 100 mM NaCl). The resulting solution was divided into 25-μL portions at a time to be mixed with 25 μL of a Tris-NaCl buffer solution.
(4) Then, the solution was allowed to stand at 37° C. for 1 hour. The supernatant solution was collected and diluted in a Tris-NaCl buffer solution to a proper concentration. Here, the quantification of the recombinant protein in the resulting solution was carried out by ELISA assay with use of an anti-His-tag antibody. The sample prior to the centrifugation in the process (3) was treated with ultrasonic waves (200 W, 10 minutes) and the quantification of the recombinant protein therein was similarly carried out by ELISA assay with use of an anti-His-tag antibody. The ratio of lysed bacteria was obtained with use of Escherichia coli (γ), and the secretion efficiencies of the recombinant proteins of Escherichia coli (α) and (β) were calculated by using the following formula. […] Secretion efficiency (%)=100×{(X/Y)−Z}.
In the formula, “X” represents the amount of the recombinant protein in the culture solution after removal of bacterial cells by centrifugation in the case of using Escherichia coli (α) or (β).
“Y” represents the amount of the whole recombinant protein in the culture solution in the case of using Escherichia coli (α) or (β).
“Z” represents the ratio of lysed bacteria obtained with use of Escherichia coli (γ), which is determined by the following formula: Z=Z1/Z2.
In the formula, “Z1” represents the amount of the recombinant protein in the culture solution which remains after removal of bacterial cells by centrifugation in the case of using Escherichia coli (γ).
“Z2” represents the amount of the whole recombinant protein in the culture solution in the case of using Escherichia coli (γ).
Escherichia coli (α) and (β) were each cultured in the same manner as in the above case except that polyoxyethylene (3 mol) tridecyl ether sodium acetate as the surfactant (A) was added right after the resuspension of the Escherichia coli in the buffer solution in the process (3) of A-0, in an amount of 1% by weight on the basis of the weight of the suspension of the bacterium. The secretion efficiency was calculated according to the above-mentioned definition.

[2] = tested on: Escherichia coli(δ); assay: Production by secretion in microbial culture system, cellulase expressing strain (Table 5); format: cell-based; settings: SDS-PAGE
[3] = Examples 2-11, surfactant 1 wt %, supernatant of culture solution

Molecule: CCCCCCCCCCCCCCCC[N+](C)(C)C.[Cl-] [A-14, Cetyl trimethyl ammonium chloride]
- Secretion efficiency (%) Escherichia coli (α) [1]: 37.8%

Molecule: Cured palm oil fatty acid amidopropyl dimethyl aminoacetate betaine [A-6]
- Quantitative value of produced recombinant protein ([2]; Example 13, surfactant 0.1 wt %, supernatant): 1.82 g/L
- Quantitative value of produced recombinant protein ([2]; Example 14, surfactant 5 wt %, supernatant): 1.53 g/L
- Quantitative value of produced recombinant protein [2, 3]: 2.35 g/L
- Secretion efficiency (%) Escherichia coli (α) [1]: 87.6%

Molecule: Polyoxyethylene(3 mol)tridecyl ether sodium acetate [A-1]
- Quantitative value of produced recombinant protein [2, 3]: 1.01 g/L
- Secretion efficiency (%) Escherichia coli (α) [1]: 100.0%

Molecule: Sodium cocaminopropionate [A-7]
- Quantitative value of produced recombinant protein [2, 3]: 2.24 g/L
- Secretion efficiency (%) Escherichia coli (α) [1]: 85.0%
